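Each compound was tested at five concentrations against cells in 96-well plates for 48 hours. The concentration for 50% growth inhibition is given as GI50.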 Active and inactive are the calls of the source. Rule as the data show it: active = GI50 up to about 1.1 µM and inactive = higher.
Columns and labels:
Assay in all cases: NCI tumour cell line growth inhibition, 48 h
RPMI-8226 = system: RPMI-8226
A549 = system: A549
SNB-75 = system: SNB-75
U-251 = system: U-251
OVCAR-4 = system: OVCAR-4
MDA-MB-231 = system: MDA-MB-231
MCF7 = system: MCF7
LOX IMVI = system: LOX IMVI
UO-31 = system: UO-31
NCI/ADR-RES = system: NCI/ADR-RES
SR = system: SR
OVCAR-3 = system: OVCAR-3
K562 = system: K562
MDA-MB-435 = system: MDA-MB-435
NCI-H226 = system: NCI-H226
UACC-62 = system: UACC-62
SK-MEL-5 = system: SK-MEL-5
OVCAR-5 = system: OVCAR-5
SF-268 = system: SF-268
M14 = system: M14

Row | SMILES | GI50 (RPMI-8226) | GI50 (A549) | GI50 (SNB-75) | GI50 (U-251) | GI50 (OVCAR-4) | GI50 (MDA-MB-231) | GI50 (MCF7) | GI50 (LOX IMVI) | GI50 (UO-31) | GI50 (NCI/ADR-RES) | GI50 (SR) | GI50 (OVCAR-3) | GI50 (K562) | GI50 (MDA-MB-435) | GI50 (NCI-H226) | GI50 (UACC-62) | GI50 (SK-MEL-5) | GI50 (OVCAR-5) | GI50 (SF-268) | GI50 (M14)
1 | CC1(C)C2CC3C4CC5(Nc6ccccc6C5N41)[C@]3(C)CC2=O (some centres undefined) | > 50 µM (inactive) | > 50 µM (inactive) | > 50 µM (inactive) | > 50 µM (inactive) | > 50 µM (inactive) | > 50 µM (inactive) | > 50 µM (inactive) | > 50 µM (inactive) | > 50 µM (inactive) | > 50 µM (inactive) | > 50 µM (inactive) | > 50 µM (inactive) | > 50 µM (inactive) | > 50 µM (inactive) | > 50 µM (inactive) | > 50 µM (inactive) | > 50 µM (inactive) | > 50 µM (inactive) | > 50 µM (inactive) | 
2 | COC(=O)/C=C/c1ccc2c(c1)CCC2 | 74.5 µM (inactive) | 46.1 µM (inactive) | 18.7 µM (inactive) | 9.79 µM (inactive) | 74.3 µM (inactive) | 63.2 µM (inactive) | 52.5 µM (inactive) | > 100 µM (inactive) | 45 µM (inactive) | 24.5 µM (inactive) | 36.7 µM (inactive) | 17.7 µM (inactive) | 30.8 µM (inactive) | 63.1 µM (inactive) |  |  | 30.2 µM (inactive) | > 100 µM (inactive) | 42.9 µM (inactive) | 64.3 µM (inactive)
3 | Cc1ccc(C(=O)OCC(C)C)cc1/N=N/N(C)C | 77.6 µM (inactive) | > 79.4 µM (inactive) |  | 65.6 µM (inactive) | > 71.8 µM (inactive) | > 100 µM (inactive) | 30.9 µM (inactive) | 31.1 µM (inactive) | 41.3 µM (inactive) | 97.1 µM (inactive) | 70.5 µM (inactive) | 28.6 µM (inactive) | > 100 µM (inactive) | 95.9 µM (inactive) | > 100 µM (inactive) | > 100 µM (inactive) | > 60.4 µM (inactive) | > 100 µM (inactive) | 42.9 µM (inactive) | 67 µM (inactive)
4 | O=C(NN=C(c1ccccc1)c1ccccc1)/C(O)=C/C(=O)c1ccc(Cl)cc1 |  | 27.7 µM (inactive) | 33 µM (inactive) | 39.1 µM (inactive) | 45.4 µM (inactive) | 11.9 µM (inactive) | 28 µM (inactive) |  | 29.8 µM (inactive) | 20.7 µM (inactive) | 39.2 µM (inactive) | 30.8 µM (inactive) | 43.5 µM (inactive) | 69.3 µM (inactive) | 41.2 µM (inactive) | 39.1 µM (inactive) | 29.1 µM (inactive) | > 100 µM (inactive) | 36.9 µM (inactive) | > 100 µM (inactive)
5 | Cc1ccc2c(C(=O)c3c(C)n(CCN4CCOCC4)c4ccccc34)cccc2c1 | 0.0592 µM (active) | 24.4 µM (inactive) |  | 12.9 µM (inactive) | 15.4 µM (inactive) | 17.3 µM (inactive) | 3.53 µM (inactive) | 12.9 µM (inactive) | 23.2 µM (inactive) | 12.4 µM (inactive) | 6.43 µM (inactive) | 3.54 µM (inactive) | 1.36 µM (inactive) | 2.29 µM (inactive) | < 0.01 µM (active) | 14.3 µM (inactive) | 0.581 µM (active) | 23.2 µM (inactive) | 11.7 µM (inactive) | 16.3 µM (inactive)
6 | CCN(CC)C(=O)N[C@@H](CC(C)C)C(=O)NC | > 100 µM (inactive) | > 100 µM (inactive) | > 100 µM (inactive) | > 100 µM (inactive) | > 100 µM (inactive) | > 100 µM (inactive) | 49.4 µM (inactive) | > 100 µM (inactive) | > 100 µM (inactive) | > 100 µM (inactive) | > 100 µM (inactive) | > 100 µM (inactive) | > 100 µM (inactive) | > 100 µM (inactive) |  | > 100 µM (inactive) | > 100 µM (inactive) | > 100 µM (inactive) | > 100 µM (inactive) | > 100 µM (inactive)
7 | CN(C)c1ccc(C(c2ccc(Cl)cc2)c2ccc(N(C)C)cc2)cc1 | 30.1 µM (inactive) | > 100 µM (inactive) | > 100 µM (inactive) | > 100 µM (inactive) |  | > 100 µM (inactive) | 49.1 µM (inactive) | > 100 µM (inactive) | > 100 µM (inactive) | > 100 µM (inactive) | 57.5 µM (inactive) | > 100 µM (inactive) | 83 µM (inactive) | > 100 µM (inactive) |  | > 100 µM (inactive) | 92.9 µM (inactive) | > 100 µM (inactive) | > 100 µM (inactive) | > 100 µM (inactive)
8 | Nc1nc(Cl)c(/C=N\O)c(NCC2(CO)CC(=O)C2)n1 | 3.33 µM (inactive) | 30.8 µM (inactive) | 31.1 µM (inactive) | > 100 µM (inactive) | 84.3 µM (inactive) | 80.7 µM (inactive) | 52.5 µM (inactive) | 45.8 µM (inactive) | 47.4 µM (inactive) | > 100 µM (inactive) | 3.85 µM (inactive) | 60.1 µM (inactive) | 54.2 µM (inactive) | 95.1 µM (inactive) | > 100 µM (inactive) |  | 76.7 µM (inactive) | 85.3 µM (inactive) | > 100 µM (inactive) | 
9 | O=C(CNCc1ccccc1)Oc1c(Cl)c(Cl)c(Cl)c(Cl)c1Cl |  | 30.4 µM (inactive) | 33.6 µM (inactive) | 28.5 µM (inactive) | 44.1 µM (inactive) | 25.4 µM (inactive) | 38.5 µM (inactive) | 29.6 µM (inactive) | 20.6 µM (inactive) | 33.7 µM (inactive) | 21.8 µM (inactive) | 22.5 µM (inactive) | 34.8 µM (inactive) | 35.2 µM (inactive) | 28.4 µM (inactive) | 21.5 µM (inactive) |  | 66.5 µM (inactive) | 37.5 µM (inactive) | 77.8 µM (inactive)
10 | CCOC1NC(/N=C/c2ccc(OC)cc2)=C(C#N)C1C#N (centres undefined) | 46.7 µM (inactive) | > 100 µM (inactive) |  | > 100 µM (inactive) | 18.4 µM (inactive) | 64.6 µM (inactive) | > 100 µM (inactive) | 44.6 µM (inactive) | > 100 µM (inactive) | > 100 µM (inactive) | 30 µM (inactive) | > 100 µM (inactive) | 31 µM (inactive) | 40.6 µM (inactive) | > 100 µM (inactive) | 32.9 µM (inactive) | 38.6 µM (inactive) | 87.5 µM (inactive) | 97.5 µM (inactive) | > 100 µM (inactive)
11 | C/C(=N\O)C1CC2C=C(C#N)C1N(Cc1ccccc1)C2 (centres undefined) | > 100 µM (inactive) | > 100 µM (inactive) | > 100 µM (inactive) | 46.3 µM (inactive) |  | > 100 µM (inactive) | > 100 µM (inactive) | > 100 µM (inactive) | > 100 µM (inactive) | > 100 µM (inactive) | > 100 µM (inactive) | > 100 µM (inactive) | > 100 µM (inactive) | > 100 µM (inactive) | > 100 µM (inactive) | > 100 µM (inactive) | > 100 µM (inactive) | > 100 µM (inactive) | > 100 µM (inactive) | > 100 µM (inactive)

Source: ChEMBL document CHEMBL1201862, “PubChem BioAssay data set” (2004)
